US10968193B2, “Antidiabetic bicyclic compounds” (Merck Sharp & Dohme Corp., priority 2014, dated 2021)

target: T1, human GPR40 (Homo sapiens, UniProt O14842); experiment: Inositol Phosphate Turnover (IP1) Assay 3; format: cell-based; conditions: HEK cells stably expressing human GPR40
T1 construct: expressed in transfected cells; host or cells: HEK cells stably expressing the aequorin reporter
Description: Human and mouse GPR40 stable cell-lines were generated in CHO cells stably expressing NFAT BLA (Beta-lactamase). A human GPR40 stable cell-line was generated in HEK cells stably expressing the aequorin expressing reporter. The expression plasmids were transfected using lipofectamine (Life Technologies) following manufacturer's instructions. Stable cell-lines were generated following drug selection.
Inositol Phosphate Turnover (IP1) Assay 3:
The assay was performed in 384-well format. HEK cells stably expressing human GPR40 were plated at 7500 cells per well in growth medium (DMEM/10% fetal calf serum). Cell plates were then incubated 16 hours at 37 degrees in a 5% CO2 incubator.
Measurement of Inositol Phosphate Turnover (IP) was performed using the CisBio IP-One kit (Part number 62IPAPEB). After the 16 hour incubation, the growth media was removed by centrifugation using the BlueWasher (AusWasher GUI Ver. v1.0.1.8) Protocol #21—“Light Dry” and 10 ul of stimulation buffer (prepared as described in the kit) was added to each well. In a separate plate, compounds were diluted in DMSO (200-fold over the final concentration in the assay well) and 50 nl was acoustically transferred to the appropriate well in the assay cell plate. The plates were then incubated for 60 minutes at 37 degrees in a 5% CO2 incubator. 10 ul of detection buffer (also prepared as described in the IP-One kit) was added to each well and the plates were incubated at rt for 60 minutes in the dark. The plates were then read in a Perkin Elmer EnVision or equivalent reader able to measure FRET. Fluorescent ratio of emission at 665 and 620 nm was then converted to IP1 concentration by back calculating from an IP1 standard curve prepared at the time of the assay. Data is normalized to % activity using a reference compound and EC50s determined using a standard 4-parameter fit.

T1 sequence (O14842 whole entry): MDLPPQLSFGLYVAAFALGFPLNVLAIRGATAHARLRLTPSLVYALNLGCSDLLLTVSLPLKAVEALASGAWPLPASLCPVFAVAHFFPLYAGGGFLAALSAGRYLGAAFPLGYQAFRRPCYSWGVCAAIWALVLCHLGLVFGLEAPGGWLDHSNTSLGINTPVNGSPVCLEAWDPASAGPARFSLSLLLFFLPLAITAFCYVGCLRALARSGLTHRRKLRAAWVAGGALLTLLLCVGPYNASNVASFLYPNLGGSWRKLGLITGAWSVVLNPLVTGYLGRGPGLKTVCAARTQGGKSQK

EC50 [nM] | Structure (SMILES)
0.7 | COc1cc(-c2ccc(C3CCc4ccc([C@H](C5CC5)[C@H](C)C(=O)O)cc4O3)c(CN3CCCC3(C)C)c2)ccn1 (mixture of isomers) [Example 111, (2S,3R)-3-cyclopropyl-3-(2-(2-((2,2-dimethylpyrrolidin-1-yl)methyl)-4-(2-methoxypyridin-4-yl)phenyl)chroman-7-yl)-2-methylpropanoic acid]
0.7 | CCN(Cc1cc(-c2ccnc(OC)c2)ccc1C1CCc2ccc([C@H](C3CC3)[C@H](C)C(=O)O)cc2O1)C(C)C (mixture of isomers) [Example 113]
5 | COc1cc(-c2ccc(C3CCc4ccc([C@H](C5CC5)[C@H](C)C(=O)O)cc4O3)c(CN(C)C(C)(C)C)c2)ccn1 (mixture of isomers) [Example 114]
0.1 | COc1cc(-c2ccc(C3CCc4ccc([C@H](C5CC5)[C@H](C)C(=O)O)cc4O3)c(CN(C(C)C)C(C)C)c2)ccn1 (mixture of isomers) [Example 115]
0.6 | COc1cc(-c2ccc(C3CCc4ccc([C@H](C5CC5)[C@H](C)C(=O)O)cc4O3)c(CN3CCCCC3(C)C)c2)ccn1 (mixture of isomers) [Example 117]
0.7 | COc1cc(-c2ccc(C3CCc4ccc([C@H](C5CC5)[C@H](C)C(=O)O)cc4O3)c(CN3CCCC[C@H]3C)c2)ccn1 (mixture of isomers) [Example 120]
0.3 | CCN(Cc1cc(-c2cc(OC)ncc2F)ccc1C1CCc2ccc([C@H](C3CC3)[C@H](C)C(=O)O)cc2O1)C(C)C (mixture of isomers) [Example 124]
2.2 | COc1cc(-c2ccc(C3CCc4ccc([C@H](C5CC5)[C@H](C)C(=O)O)cc4O3)c(CN(C)C(C)(C)C)c2)c(F)cn1 (mixture of isomers) [Example 125]
0.1 | COc1cc(-c2ccc(C3CCc4ccc([C@H](C5CC5)[C@H](C)C(=O)O)cc4O3)c(CN(C(C)C)C(C)C)c2)c(F)cn1 (mixture of isomers) [Example 126]
0.16 | COc1cc(-c2ccc(C3CCc4ccc([C@H](C5CC5)[C@H](C)C(=O)O)cc4O3)c(CN3CCCCC3(C)C)c2)c(F)cn1 (mixture of isomers) [Example 128]
4.8 | CCOc1cc(-c2ccc(C3CCc4ccc([C@H](C5CC5)[C@H](C)C(=O)O)cc4O3)c(CN(C)C(C)(C)C)c2)c(F)cn1 (mixture of isomers) [Example 132]
17 | COCC(c1cc([C@H]2CCc3ccc([C@H](C4CC4)[C@H](C)C(=O)O)cc3O2)ccc1-c1ccnc(OC)c1)N1CCCC1 (mixture of isomers) [Example 179, (2S, 3R)-3-cyclopropyl-3-((2R)-2-(3-(2-methoxy-1-(pyrrolidin-1-yl)ethyl)-4-(2-methoxypyridin-4-yl)phenyl)chroman-7-yl)-2-methylpropanoic acid]
2.9 | CCN(CC)Cc1cc(C2CCc3ccc([C@H](C4CC4)[C@H](C)C(=O)O)cc3O2)ccc1-c1cc(OC)ncc1C#N (mixture of isomers) [Example 197]
1.4 | CCN(CC)Cc1cc(C2CCc3ccc([C@H](C4CC4)[C@H](C)C(=O)O)cc3O2)ncc1-c1cc(OC)ncc1F (single isomer, unassigned) [Example 86]
6.6 | CCN(CC)Cc1cc(C2CCc3ccc([C@H](C4CC4)[C@H](C)C(=O)O)cc3O2)ncc1-c1cc(OC)ncc1F (single isomer, unassigned) [Example 87]
6.7 | CCN(CC)Cc1nc(C2CCc3ccc([C@H](C4CC4)[C@H](C)C(=O)O)cc3O2)ccc1-c1cc(OC)ncc1F (single isomer, unassigned) [Example 88]
0.9 | CCN(CC)Cc1nc(C2CCc3ccc([C@H](C4CC4)[C@H](C)C(=O)O)cc3O2)ccc1-c1cc(OC)ncc1F (single isomer, unassigned) [Example 89]
0.06 | COc1cc(-c2ccc(C3CCc4ccc([C@H](C5CCC5)[C@H](C)C(=O)O)cc4O3)cc2CN2[C@H](C)CC[C@H]2C)c(F)cn1 (single isomer, unassigned) [Example 96]
0.19 | COc1cc(-c2ccc(C3CCc4ccc([C@H](C5CCC5)[C@H](C)C(=O)O)cc4O3)cc2CN2[C@H](C)CC[C@H]2C)c(F)cn1 (single isomer, unassigned) [Example 97]
0.09 | CCN(CC)Cc1cc(C2CCc3ccc([C@H](C4CCC4)[C@H](C)C(=O)O)cc3O2)ccc1-c1cc(OC)ncc1F (single isomer, unassigned) [Example 98]
0.18 | CCN(CC)Cc1cc(C2CCc3ccc([C@H](C4CCC4)[C@H](C)C(=O)O)cc3O2)ccc1-c1cc(OC)ncc1F (single isomer, unassigned) [Example 99]

EC50 [nM] | Structure (SMILES)
0.14 | COc1cc(-c2ccc(C3CCc4ccc([C@H](C5CCC5)[C@H](C)C(=O)O)cc4O3)cc2CN2CCCC2C)c(F)cn1 (single isomer, unassigned) [Example 100]
0.25 | COc1cc(-c2ccc(C3CCc4ccc([C@H](C5CCC5)[C@H](C)C(=O)O)cc4O3)cc2CN2CCCC2C)c(F)cn1 (single isomer, unassigned) [Example 101]
1.1 | COc1cc(-c2ccc(C3CCc4ccc([C@H](C5CCC5)[C@H](C)C(=O)O)cc4O3)cc2CN2CCCCC2)c(F)cn1 (single isomer, unassigned) [Example 104]
0.1 | COc1cc(-c2ccc(C3CCc4ccc([C@H](C5CCC5)[C@H](C)C(=O)O)cc4O3)cc2CN2CCCCC2)c(F)cn1 (single isomer, unassigned) [Example 105]
0.2 | COc1cc(-c2ccc(C3CCc4ccc([C@H](C5CCC5)[C@H](C)C(=O)O)cc4O3)cc2CN2CCCCC23CC3)c(F)cn1 (single isomer, unassigned) [Example 106]
0.1 | COc1cc(-c2ccc(C3CCc4ccc([C@H](C5CCC5)[C@H](C)C(=O)O)cc4O3)cc2CN2CCCCC23CC3)c(F)cn1 (single isomer, unassigned) [Example 107]
0.1 | COc1cc(-c2ccc(C3CCc4ccc([C@H](C5CCC5)[C@H](C)C(=O)O)cc4O3)cc2CN2CCCC2(C)C)c(F)cn1 (single isomer, unassigned) [Example 108]
0.1 | COc1cc(-c2ccc(C3CCc4ccc([C@H](C5CCC5)[C@H](C)C(=O)O)cc4O3)cc2CN2CCCC2(C)C)c(F)cn1 (single isomer, unassigned) [Example 109]
3.2 | COc1cc(-c2ccc(C3CCc4ccc([C@H](C5CC5)[C@H](C)C(=O)O)cc4O3)c(CN3CCCC3(C)C)c2)ccn1 (single isomer, unassigned) [Example 111a]
0.4 | COc1cc(-c2ccc(C3CCc4ccc([C@H](C5CC5)[C@H](C)C(=O)O)cc4O3)c(CN3CCCC3(C)C)c2)ccn1 (single isomer, unassigned) [Example 111b]
2.3 | COc1cc(-c2ccc(C3CCc4ccc([C@H](C5CC5)[C@H](C)C(=O)O)cc4O3)c(CN3CCCC3)c2)ccn1 (single isomer, unassigned) [Example 112a]
273 | COc1cc(-c2ccc(C3CCc4ccc([C@H](C5CC5)[C@H](C)C(=O)O)cc4O3)c(CN3CCCC3)c2)ccn1 (single isomer, unassigned) [Example 112b]
0.4 | CCN(Cc1cc(-c2ccnc(OC)c2)ccc1C1CCc2ccc([C@H](C3CC3)[C@H](C)C(=O)O)cc2O1)C(C)C (single isomer, unassigned) [Example 113a]
14 | CCN(Cc1cc(-c2ccnc(OC)c2)ccc1C1CCc2ccc([C@H](C3CC3)[C@H](C)C(=O)O)cc2O1)C(C)C (single isomer, unassigned) [Example 113b]
1.5 | COc1cc(-c2ccc(C3CCc4ccc([C@H](C5CC5)[C@H](C)C(=O)O)cc4O3)c(CN(C)C(C)(C)C)c2)ccn1 (single isomer, unassigned) [Example 114a]
250 | COc1cc(-c2ccc(C3CCc4ccc([C@H](C5CC5)[C@H](C)C(=O)O)cc4O3)c(CN(C)C(C)(C)C)c2)ccn1 (single isomer, unassigned) [Example 114b]
0.1 | COc1cc(-c2ccc(C3CCc4ccc([C@H](C5CC5)[C@H](C)C(=O)O)cc4O3)c(CN(C(C)C)C(C)C)c2)ccn1 (single isomer, unassigned) [Example 115a]
5.3 | COc1cc(-c2ccc(C3CCc4ccc([C@H](C5CC5)[C@H](C)C(=O)O)cc4O3)c(CN(C(C)C)C(C)C)c2)ccn1 (single isomer, unassigned) [Example 115b]
1.7 | COc1cc(-c2ccc(C3CCc4ccc([C@H](C5CC5)[C@H](C)C(=O)O)cc4O3)c(CN3[C@H](C)CC[C@H]3C)c2)ccn1 (single isomer, unassigned) [Example 116a]
1 | COc1cc(-c2ccc(C3CCc4ccc([C@H](C5CC5)[C@H](C)C(=O)O)cc4O3)c(CN3[C@H](C)CC[C@H]3C)c2)ccn1 (single isomer, unassigned) [Example 116b]
1000 | COc1cc(-c2ccc(C3CCc4ccc([C@H](C5CC5)[C@H](C)C(=O)O)cc4O3)c(CN3[C@H](C)CC[C@H]3C)c2)ccn1 (single isomer, unassigned) [Example 116c]
